Experiments:
[1] = system: co-cultured BAMEC and LNCaP cells; assay: Three-dimensional growth and tube formation assay, BAMEC/LNCaP co-culture on […]; format: cell-based, bovine, human; settings: for tube formation: loops / tube formation: units of tubes: 10 μg/ml protein added to medium, 36 hr; for tube formation: loops: control 0; for tube formation: units of tubes: control 73; for branching morphogenesis of endothelial cells: 10 μg/ml protein, BAMEC/LNCaP co-culture
Method: Three-dimensional Growth and Tube Formation Assay. To analyze in vitro angiogenesis and interactions between epithelial and endothelial cell formation of tubular networks by co-cultured BAMEC and LNCaP cells, a three-dimensional growth and tube formation assay was performed. Briefly, […]® (10 μl) was added to each chamber of the slide (μ-Slide, ibidi, Martinsried, Germany) and gelled by a 30-min incubation at room temperature, after which 15,000 BAMEC and 5000 LNCaP cells were plated onto the gel in 50 μl of Eagle's minimal essential complete medium. In some chambers, full-length galectin-3 or its fragments were added. After 36 hr, three-dimensional structures were observed under phase contrast microscope and photographed. Images were acquired with an Olympus IX71 microscope supporting a Hamamatsu ORCA-ER video camera. Tube formation image analysis was done using the web-based Image Analysis Win-Tube module of Wimasis online software.
Three-dimensional heterotypic co-cultures of epithelial (LNCaP) and endothelial (BAMEC) cells were performed on […]® to study tube formation in the presence of 10 μg/ml galectin-3 and its fragments. […] FIG. 2B presents a quantitative evaluation of the tube formation assay.

[2] = system: LNCaP, Du145, and PC3M cell lines; assay: Wound-healing (scratch) assay; format: cell-based, human; settings: 24 hr, compared with the control
Method: Wound-healing Assay. A wound-healing assay, the scratch assay, was performed according to the protocol published in Liang, et al. (2007), Nat. Protoc. 2, 329-333. Briefly, in this scratch assay 60-mm dishes were coated with ECM and incubated overnight, unbound ECM was removed and the dishes were blocked with bovine serum albumin. Subconfluent growing cells were resuspended in a tissue culture dish by washing cells with PBS, adding versene containing trypsin, and mixing cells with medium containing serum. Cells were then plated onto the prepared 60-mm dish to create a confluent monolayer, and incubated for 6 hr at 37° C.
The cell lines LNCaP (null galectin-3), DU145 (stable clone with reduced galectin-3 expression), and PC3M were used to examine the effect of full-length galectin-3, galectin-3 1-107, and galectin-3 108-250 on prostate cancer cell motility using the scratch assay. The assay was performed with LNCaP, Du145, and PC3M cultured cell lines stimulated by full-length galectin-3, and fragments galectin-3 1-107 and 108-250. A uniform wound was made in each plate using a 1-μl pipette tip. The wound area was observed immediately, then at 24 hr after creation the cells were counted. Cells were grown under identical conditions.

LNCaP cells = assay: Chemotaxis assay (Boyden chamber); format: cell-based, human; settings: 10 μg/ml, 5 hr, compared with control or either of the two fragments
Method: Chemotaxis. This assay was performed using a Boyden chamber (Neuroprobe). In the lower chamber, the chemo-attractant […]® (BD Biosciences) alone or mixed with various concentrations of recombinant galectin-3, galectin-3 1-107, or galectin-3 108-250 was added. LNCaP (5×10^4) cells suspended in basic DMEM were loaded in the upper chamber. The two chambers were separated by a polycarbonate filter of 5-micron pore size and incubated in a 37° C. tissue culture incubator for 5 hr, after which the filter was removed, the cells on top of the filter were wiped off, and the migrated cells were fixed, stained using Protocol Hema 3 stain set (Fisher Scientific), and counted under microscope. Each assay was carried out in triplicate.
The effects of galectin-3 1-107 and 108-250 fragments, as well as full-length galectin-3 on migration of LNCaP cells in a chemotaxis assay were also tested.

| Substance | tube formation: loops [1] | tube formation: units of tubes [1] [units] | branching morphogenesis of endothelial cells [1] | prostate cancer cell motility [2] | migration of LNCaP cells toward MATRIGEL (LNCaP cells) |
| --- | --- | --- | --- | --- | --- |
| galectin-3 108-250: recombinant fragment 108-250 of human galectin-3 (SEQ ID NO:3), contains carbohydrate recognition domain | 0 | 76 | failed to do so | did not show a significant increase in motility | – |
| full-length galectin-3: recombinant full-length human galectin-3 protein (SEQ ID NO:1), overexpressed in Escherichia coli | 12 | 127 | induced branching morphogenesis | promotes prostate cancer cell motility | significantly higher |
